Where a name gives a salt, the structure may show the parent alone.
test system: BxPC-3 cells; test: Cellular proliferation assay in BxPC-3 cells (Cell-Titer Glo, 120 h); format: cell-based; conditions: Homo sapiens, 120 h incubation, Cell-Titer Glo luminescence
Protocol: Compounds are tested for their ability to impair cancer cell proliferation and/or induce cell death. For cellular proliferation studies, cultured cells are treated with the test compound for 24-120 hours. After compound treatment, cell proliferation is assessed by using methods including, but not limited to, Cell-Titer-Glo® (Promega), Alamar Blue, LIVE/DEAD® (ThermoFisher), BrdU incorporation, and live-cell imaging.
The cancer lines used include, but are not limited to, PANC-1, MiaPaCa-2, BxPC-3 (pancreatic cancer), RT112 (bladder cancer), MCF-7 (breast cancer), and A549 (non-small cell lung cancer). Gemcitabine Hydrochloride serves as a control for activity.
Protocol for the Cellular Proliferation Assay in BxPC-3 Cells
BxPC-3 (pancreatic adenocarcinoma) cell line was purchased from the American Type Culture Collection (Catalog #CRL-1687) and grown in RPMI-1640 medium (e.g. Corning #10-040-CV) with 10% Heat Inactivated Fetal Calf Serum at 37° C. and 5% CO2 (as recommended by the ATCC).
Cultures were grown in […] plates to 80% confluence, and cells were trypsinized to a single-cell suspension. Cells were then resuspended in growth medium to a density of […]. They were then plated into 96-well assay plates (Corning #3917) in a volume of 100 ul/well (2,500 cells/well). Cells were allowed to adhere to plates for 24 h at 37° C. and 5% CO2). Compounds were then added to the wells using an […] serial dilution scheme (over 9 dilutions, generally ranging from 30 μM-30 pM), and the cells were incubated for an additional 120 hours. After 120 h, 90 ul of Cell-Titer Glo reagent (Promega #G7572) was added, and the plates were read using a luminescence counter (e.g., BioTek Synergy HTX at 100 ms read time).

Compared with `CCCCCCCCCCOP1(=O)OC[C@H]2O[C@@H](n3ccc(N)nc3=O)C(F)(F)[C@@H]2O1` (single isomer, unassigned) [Compound 42A], `CCCCCCCCCCCCCCCCOP1(=O)OC[C@H]2O[C@@H](n3ccc(N)nc3=O)C(F)(F)[C@@H]2O1` (single isomer, unassigned) [Compound 43A] is higher in EC50: < 1 nM for the first, 1 to 100 nM for the second.

`CCCCCCCCCCCCCCCCCCOP1(=O)OC[C@H]2O[C@@H](n3ccc(N)nc3=O)C(F)(F)[C@@H]2O1` (single isomer, unassigned) [Compound 44A] and `CCCCCCCCCCCCCCCCCCCCOP1(=O)OC[C@H]2O[C@@H](n3ccc(N)nc3=O)C(F)(F)[C@@H]2O1` (single isomer, unassigned) [Compound 45A] cannot be ordered by EC50: 1 to 100 nM for the first, < 1000 nM for the second.

`CCCCCCCCCCCCCCCCCCCCCCOP1(=O)OC[C@H]2O[C@@H](n3ccc(N)nc3=O)C(F)(F)[C@@H]2O1` (single isomer, unassigned) [Compound 46A] and `CCCCCCCCCCOP(=O)(OCCCCCCCCCC)OC[C@H]1O[C@@H](n2ccc(N)nc2=O)C(F)(F)[C@@H]1OC(=O)CCCCCCCCCC` [Compound 21, (2R,3R,5R)-5-(4-amino-2-oxopyrimidin-1(2H)-yl)-2-(((bis(decyloxy)phosphoryl)oxy)methyl)-4,4-difluorotetrahydrofuran-3-yl undecanoate] fall in the same range of EC50: 1000 to 25000 nM for the first, 1000 to 25000 nM for the second.

`CCCCCCCCC(=O)O[C@@H]1[C@@H](COP(=O)(OCCCCCC)OCCCCCC)O[C@@H](n2ccc(N)nc2=O)C1(F)F` [Compound 1, (2R,3R,5R)-5-(4-amino-2-oxopyrimidin-1(2H)-yl)-2-(((bis(hexyloxy)phosphoryl)oxy)methyl)-4,4-difluorotetrahydrofuran-3-yl nonanoate] and `CCCCCCCOP(=O)(OCCCCCCC)OC[C@H]1O[C@@H](n2ccc(N)nc2=O)C(F)(F)[C@@H]1OC(=O)CCCCCCC` [Compound 19, (2R,3R,5R)-5-(4-amino-2-oxopyrimidin-1(2H)-yl)-2-(((bis(heptyloxy)phosphoryl)oxy)methyl)-4,4-difluorotetrahydrofuran-3-yl octanoate] cannot be ordered by EC50: 1 to 100 nM for the first, < 1000 nM for the second.

`CCCCCCCCC(=O)O[C@@H]1[C@@H](COP2(=O)OCc3ccccc3O2)O[C@@H](n2ccc(N)nc2=O)C1(F)F` (stereo partly drawn) [Compound 2, (2R,3R,5R)-5-(4-amino-2-oxopyrimidin-1(2H)-yl)-4,4-difluoro-2-(((2-oxido-4H-benzo[d][1,3,2]dioxaphosphinin-2-yl)oxy)methyl)tetrahydrofuran-3-yl nonanoate] and `CCCCCCCCCCCCC(=O)O[C@@H]1[C@@H](COP2(=O)OCc3ccccc3O2)O[C@@H](n2ccc(N)nc2=O)C1(F)F` (stereo partly drawn) [Compound 28, (2R,3R,5R)-5-(4-amino-2-oxopyrimidin-1(2H)-yl)-4,4-difluoro-2-(((2-oxido-4H-benzo[d][1,3,2]dioxaphosphinin-2-yl)oxy)methyl)tetrahydrofuran-3-yl tridecanoate] cannot be ordered by EC50: < 1 nM for the first, < 1 nM for the second.

`CCCCCCCCC(=O)O[C@@H]1[C@@H](COP(=O)(OCOC(=O)C(C)(C)C)OCOC(=O)C(C)(C)C)O[C@@H](n2ccc(N)nc2=O)C1(F)F` [Compound 3] and `CCCCCCCCCCCCC(=O)O[C@@H]1[C@@H](COP(=O)(OCOC(=O)C(C)(C)C)OCOC(=O)C(C)(C)C)O[C@@H](n2ccc(N)nc2=O)C1(F)F` [Compound 33] cannot be ordered by EC50: < 1 nM for the first, < 1 nM for the second.

First: CC(C)OP(=O)(OC[C@H]1O[C@@H](n2ccc(N)nc2=O)C(F)(F)[C@@H]1OC(=O)C(C)C)OC(C)C [Compound 16, (2R,3R,5R)-5-(4-amino-2-oxopyrimidin-1(2H)-(((diisopropoxyphosphoryl)oxy)methyl)-4,4-difluorotetrahydrofuran-3-yl isobutyrate]
Second: CCCOP(=O)(OCCC)OC[C@H]1O[C@@H](n2ccc(N)nc2=O)C(F)(F)[C@@H]1OC(=O)CCC [Compound 17, (2R,3R,5R)-5-(4-amino-2-oxopyrimidin-1(2H)-(((dipropoxyphosphoryl)oxy)methyl)-4,4-difluorotetrahydrofuran-3-yl butyrate]
The EC50 of the first is lower: < 1000 nM for the first, 1000 to 25000 nM for the second.

First: CCCCCOP(=O)(OCCCCC)OC[C@H]1O[C@@H](n2ccc(N)nc2=O)C(F)(F)[C@@H]1OC(=O)CCCCC [Compound 18, (2R,3R,5R)-5-(4-amino-2-oxopyrimidin-1(2H)-yl)-2-(((bis(pentyloxy)phosphoryl)oxy)methyl)-4,4-difluorotetrahydrofuran-3-yl hexanoate]
Second: CCCCCCCCCCCCCCCCC(=O)O[C@@H]1[C@@H](COP(=O)(OCCCCCCCC)OCCCCCCCC)O[C@@H](n2ccc(N)nc2=O)C1(F)F [Compound 20, (2R,3R,5R)-5-(4-amino-2-oxopyrimidin-1(2H)-yl)-2-(((bis(octyloxy)phosphoryl)oxy)methyl)-4,4-difluorotetrahydrofuran-3-yl heptadecanoate]
The EC50 of the first is lower: < 1000 nM for the first, 1000 to 25000 nM for the second.

`CCCCCCCCCCCCOP(=O)(OCCCCCCCCCCCC)OC[C@H]1O[C@@H](n2ccc(N)nc2=O)C(F)(F)[C@@H]1OC(=O)CCCCCCCCCCCC` [Compound 22, (2R,3R,5R)-5-(4-amino-2-oxopyrimidin-1(2H)-yl)-2-(((bis(dodecyloxy)phosphoryl)oxy)methyl)-4,4-difluorotetrahydrofuran-3-yl tridecanoate] and `CCCCCCCCCCCCCCOP(=O)(OCCCCCCCCCCCCCC)OC[C@H]1O[C@@H](n2ccc(N)nc2=O)C(F)(F)[C@@H]1OC(=O)CCCCCCCCCCCCCC` [Compound 23, (2R,3R,5R)-5-(4-amino-2-oxopyrimidin-1(2H)-yl)-2-(((bis(tetradecyloxy)phosphoryl)oxy)methyl)-4,4-difluorotetrahydrofuran-3-yl pentadecanoate] fall in the same range of EC50: 1000 to 25000 nM for the first, 1000 to 25000 nM for the second.

`Nc1ccn([C@@H]2O[C@H](COP(=O)(OC3CCCCC3)OC3CCCCC3)[C@@H](OC(=O)C3CCCCC3)C2(F)F)c(=O)n1` [Compound 24, (2R,3R,5R)-5-(4-amino-2-oxopyrimidin-1(2H)-(((bis(cyclohexyloxy)phosphoryl)oxy)methyl)-4,4-difluorotetrahydrofuran-3-yl cyclohexanecarboxylate] and `Nc1ccn([C@@H]2O[C@H](COP(=O)(Oc3ccccc3)Oc3ccccc3)[C@@H](OC(=O)c3ccccc3)C2(F)F)c(=O)n1` [Compound 25, (2R,3R,5R)-5-(4-amino-2-oxopyrimidin-1(2H)-yl)-2-(((diphenoxyphosphoryl)oxy)methyl)-4,4-difluorotetrahydrofuran-3-yl benzoate] fall in the same range of EC50: 1000 to 25000 nM for the first, 1000 to 25000 nM for the second.

`CCCCCCCCCCCCCCC(=O)O[C@@H]1[C@@H](COP2(=O)OCc3ccccc3O2)O[C@@H](n2ccc(N)nc2=O)C1(F)F` (stereo partly drawn) [Compound 29, (2R,3R,5R)-5-(4-amino-2-oxopyrimidin-1(2H)-yl)-4,4-difluoro-2-(((2-oxido-4H-benzo[d][1,3,2]dioxaphosphinin-2-yl)oxy)methyl)tetrahydrofuran-3-yl pentadecanoate] and `CCCCCCCCCCCCCCCCC(=O)O[C@@H]1[C@@H](COP2(=O)OCc3ccccc3O2)O[C@@H](n2ccc(N)nc2=O)C1(F)F` (stereo partly drawn) [Compound 30, (2R,3R,5R)-5-(4-amino-2-oxopyrimidin-1(2H)-yl)-4,4-difluoro-2-(((2-oxido-4H-benzo[d][1,3,2]dioxaphosphinin-2-yl)oxy)methyl)tetrahydrofuran-3-yl heptadecanoate] cannot be ordered by EC50: < 1 nM for the first, < 1 nM for the second.

`CCCCCCCCCCCCCCCCC(=O)O[C@@H]1[C@@H](COP2(=O)OCc3cccc(C)c3O2)O[C@@H](n2ccc(N)nc2=O)C1(F)F` (stereo partly drawn) [Compound 31, (2R,3R,5R)-5-(4-amino-2-oxopyrimidin-1(2H)-yl)-4,4-difluoro-2-(((8-methyl-2-oxido-4H-benzo[d][1,3,2]dioxaphosphinin-2-yl)oxy)methyl)tetrahydrofuran-3-yl heptadecanoate] and `CCCCCCCCCCCCCCCCC(=O)O[C@@H]1[C@@H](COP2(=O)OCc3c(C)cccc3O2)O[C@@H](n2ccc(N)nc2=O)C1(F)F` (stereo partly drawn) [Compound 32, (2R,3R,5R)-5-(4-amino-2-oxopyrimidin-1(2H)-yl)-4,4-difluoro-2-(((5-methyl-2-oxido-4H-benzo[d][1,3,2]dioxaphosphinin-2-yl)oxy)methyl)tetrahydrofuran-3-yl heptadecanoate] cannot be ordered by EC50: < 1 nM for the first, < 1 nM for the second.

`CCCCCCCCCCCCCCC(=O)O[C@@H]1[C@@H](COP(=O)(OCOC(=O)C(C)(C)C)OCOC(=O)C(C)(C)C)O[C@@H](n2ccc(N)nc2=O)C1(F)F` [Compound 34] and `CCCCCCCCCCCCCCCCC(=O)O[C@@H]1[C@@H](COP(=O)(OCOC(=O)C(C)(C)C)OCOC(=O)C(C)(C)C)O[C@@H](n2ccc(N)nc2=O)C1(F)F` [Compound 35] cannot be ordered by EC50: < 1 nM for the first, < 1 nM for the second.

First: CCCCCCCCCCCCCCCCCCC(=O)O[C@@H]1[C@@H](COP(=O)(OCOC(=O)C(C)(C)C)OCOC(=O)C(C)(C)C)O[C@@H](n2ccc(N)nc2=O)C1(F)F [Compound 36]
Second: Nc1ccn([C@@H]2O[C@H](CO)[C@@H](O)C2(F)F)c(=O)n1 [Gemcitabine Hydrochloride, 2′,2′-difluoro-2′-deoxycytidine, reference compound]
The EC50 of the first is lower: < 1 nM for the first, 1 to 100 nM for the second. The first is the more potent here.

From US11306111B2, “Organophosphate derivatives” (January Therapeutics, Inc., priority 2017, dated 2022)
